According to US20170021002A1, “AUGMENTATION OF CANCER AND CANCER ENDOTHELIAL VACCINE IMMUNOGENICITY BY HISTONE DEACETYLASE INHIBITORS” (Batu Biologics, Inc., priority 2015, published 2017):

How the values were obtained:
[1] = system: allogeneic responding lymphocytes (responder PBMC); assay: Mixed lymphocyte reaction, proliferation by [3H]-thymidine incorporation; assay type: cell-based, human; conditions: placental endothelial stimulator cells pretreated with the agent; FIG. 1a
Protocol: (§1) Peripheral blood mononuclear cells (PBMC) were isolated from buffy coats of healthy blood donors (Sanquin, Rotterdam, the Netherlands) by density gradient centrifugation using Ficoll-Paque PLUS (density 1.077 g/ml; GE Healthcare, Uppsala, Sweden). Cells were frozen at −150° C. until further use in RPMI-1640 medium with GlutaMAX™-I (Life Technologies) supplemented with 1% P/S, 10% human serum (Sanquin) and 10% dimethylsulphoxide (DMSO; Merck, Hohenbrunn, Germany).
(§2) Mixed lymphocyte reactions (MLR) were set up with 5×10^5 responder PBMC and 5×10^3 (1:100), 5×10^4 (1:10), […] γ-irradiated (10 Gy) ValloVax™ cells in round-bottomed 96-well plates (Nunc, Roskilde, Denmark). MLR were cultured in MEM-α supplemented with 2 mM L-glutamine, 1% P/S and 10% heat-inactivated human serum for 4 days in a humidified atmosphere with 5% CO2 at 37° C.
Cell proliferation was assessed by thymidine incorporation, [^3H]-thymidine (0.25 μCi/well; PerkinElmer, Groningen, the Netherlands) was added on day 4, incubated for 8 h and its incorporation was measured using the Wallac 1450 MicroBeta Trilux (PerkinElmer).
It was previously reported that ValloVax™, a placental endothelial derived cellular vaccine stimulates immunity to proliferating endothelium, resulting in tumor regression. […]

ValloVax™ cells [2] = assay: Viability of ValloVax™ stimulator cells in MLR (CellTiter); assay type: cell-based, human; conditions: ValloVax™ cells treated with VPA, cultured with allogeneic responding cells, FIG. 2
Protocol: Cells were incubated with or without 1 mM VPA for 48 hours.
Depletion of T cells, B cells and NK cells was performed with Magnetic Activated Cell (MACS) isolation kits from Milteny Biotec following the manufacturer's instructions.
Viability was assessed by CellTiter Viability kit from Promega following the manufacturer's instructions.
as §2

[3] = system: Lewis Lung Carcinoma (LLC); assay: Established Lewis Lung Carcinoma tumor model; assay type: in vivo, C57BL/6 mice; conditions: for antitumor activity / efficacy: VPA systemically administered (100 mg/kg intraperitoneally every third day) to animals receiving ValloVax™, 100 mg/kg; for antitumor activity / efficacy / tumor killing activity / therapeutic efficacy: FIG. 5; for tumor killing activity / therapeutic efficacy: ValloVax™ pretreated in vitro with VPA, compared to standard ValloVax™, LLC bearing mice
Description: Female C57BL/6 aged 8-12 weeks were purchased from The Jackson Laboratory. Animals were housed under conventional conditions at the Animal Care Facility, Institute for Cellular Immunology, and were cared for in accordance with the guidelines established by the Canadian Council on Animal Care. Lewis Lung Carcinoma (LLC), a murine lung carcinoma originating from C57/BL6 mice was obtained from American Type Culture Collection (ATCC). The cells were maintained in RPMI1640 supplemented with 10% fetal bovine serum, 2 mM glutamine (Gibco-BRL, Life Technologies, Inc.) and were passaged by trypsinization once cells reached 75% confluence. The cell line was cultured at 37°0 C. in a 5% CO2 incubator under fully humidified conditions.
For induction of tumor growth, 5×10^5 LLC cells, American Type Culture Collection (Manassas, Va.) cells were injected subcutaneously into the hind limb flank. Four weekly vaccinations of 5×10^5 test cells were administered subcutaneously on the contralateral side to which tumors were administered. Tumors were allowed to grow for 2 weeks, subsequently to which one injection of ValloVax™ or VPA-pretreated ValloVax™ was given. Valproic acid was administered every third day at a concentration of 100 mg/kg intraperitoneally. Tumor growth was assessed every 3 days by two measurements of perpendicular diameters by a caliper, and animals were sacrificed when tumors reached a size of 1 cm in any direction. Tumor volume was calculated by the following formula: (the shortest diameter^2×the longest diameter)/2.

[4] = system: ValloVax™ cells cultured with NK-92 cells; assay: Killing of VPA treated ValloVax™ cells by NK-92 cell line; assay type: cell-based, human; conditions: FIG. 4
Protocol: Cells were incubated with or without 1 mM VPA for 48 hours. NK-92 cells were added to the target cells as effector cells, and the cells were co-cultured for 4 h 37° C. To block NKG2D on NK-92 cells, 10 μg/ml anti-NKG2D mAb or mouse IgG1 isotype control antibody were added to the NK cells 30 min before co-culture. Viability was assessed by CellTiter Viability kit from Promega following the manufacturer's instructions.

ValloVax™ cells [5] = assay: Ex vivo cytotoxicity of NK cells from in vivo valproic acid treated mice to ValloVax™ cells; assay type: cell-based; conditions: NK cells isolated from in vivo valproic acid treated mice
LLC cells = assay: Ex vivo cytotoxicity of NK cells from in vivo valproic acid treated mice to LLC cells; assay type: cell-based; conditions: NK cells isolated from in vivo valproic acid treated mice
[6] = system: mixed lymphocyte reaction (PBMC with ValloVax™ cells); assay: Cytokine ELISA of mixed lymphocyte reaction supernatants; assay type: cell-based, human; conditions: ValloVax™ treated with VPA
Protocol: as §1, §2
For cytokine analysis supernatant was collected on day two of culture and analyzed by ELISA (R & D Systems) as per manufacturer's instructions.

[7] = system: non-small cell lung cancer (NSCLC); conditions: patients diagnosed with metastatic disease; cited from earlier work

CCCC(CCC)C(=O)O [VPA, Valproic acid]
Proliferation of allogeneic responding lymphocytes (allostimulatory activity) [1]: not | viability of the ValloVax™ cells in MLR (ValloVax™ cells [2]): dose-dependent loss of viability | viability of the ValloVax™ cells in MLR (ValloVax™ cells [2]; listed as valproic acid): killing of ValloVax™ in vitro by an NK cell dependent mechanism | antitumor activity / efficacy [3]: synergistic antitumor activity | antitumor activity / efficacy ([3]; listed as valpoic acid): enhanced antitumor efficacy | antitumor activity / efficacy ([3]; listed as valproic acid): augmented efficacy against lung cancer | tumor killing activity / therapeutic efficacy [3]: did not significantly augment | tumor killing activity / therapeutic efficacy ([3]; listed as valproic acid): did not augment in vivo efficacy | Survival ([3]; in vivo administration of VPA and ValloVax, established lung cancer model): Significantly Enhances Survival | toxicity to VPA treated ValloVax™ cells [4]: toxicity was observed | cytotoxicity of NK cells to ValloVax™ cells ex vivo (ValloVax™ cells [5]): enhanced cytotoxicity | cytotoxicity of NK cells to LLC cells (LLC cells): enhanced cytotoxicity | IL-10 in MLR ([6]; FIG. 1d): no significant upregulation | production of IFN-gamma in MLR ([6]; supernatants from MLR at 48 hours, FIG. 1b): substantially increased | production of IL-18 in MLR ([6]; supernatants from MLR at 48 hours, FIG. 1c): substantially increased

Nc1nc2[nH]cc(CCc3ccc(C(=O)N[C@@H](CCC(=O)O)C(=O)O)cc3)c2c(=O)[nH]1 [pemetrexed]
median overall survival (OS) [7]: 17 months

B1: interferon gamma: cytokine used to pretreat placental endothelial cells (100 IU per ml) (protein, UniProt P01579 24-161, looked up)
Interferon gamma: QDPYVKEAENLKKYFNAGHSDVADNGTLFLGILKNWKEESDRKIMQSQIVSFYFKLFKNFKDDQSIQKSVETIKEDMNVKFFNSNKKKRDDFEKLTNYSVTDLNVQRKAIHELIQVMAELSPAAKTGKRKRSQMLFRG
Proliferation of allogeneic responding lymphocytes (allostimulatory activity) [1]: substantially enhanced
